Tested on: RLE-6TN cells
Assay: RLE-6TN cell survival under hyperoxia and recovery, viable cells counted by trypan blue exclusion
Format: cell-based, rat
Experimental: FIG. 7. […] The cells were cultured in DMEM/F12 with 10% FBS in 21% O2 and 5% CO2 overnight. […] The viable cells are counted immediately after 72-hour hyperoxia exposure. Cell viability is assessed with trypan blue. The amount of viable cells under specific conditions is presented as a percentage of the cell number from hyperoxia alone. Data are mean±s.d. of four independent experiments with *=P<0.05; **=P<0.01.
FIG. 8. […] In both (A) and (B), the number of viable cells under specific conditions is presented as a percentage of the cell number related to hyperoxia alone in the same experiment. Data are mean s.d. of four independent experiments with *=P<0.05; **=P<0.01.
FIG. 10. HO-1 upregulation is required for T3-increased RLE-6TN cell survival in hyperoxia. […] The cells were then collected for Western Blot analysis. (B) The cells were incubated in 21% O2 and 5% CO2 for 72 hours in the present of HO-1 inhibitor Tin Protoporphyrin IX (10^−6M). […] Cell viability is assessed with trypan blue. The number of viable cells under specific conditions is presented as a percentage of the cell number related to hyperoxia alone. Data are mean±s.d. of three independent experiments with *=P<0.05; **=P<0.01.
FIG. 11. PI3K inhibitor wortmannin blocked T3-induced cell survival in hyperoxia. […] Cell viability is assessed with trypan blue. The number of viable cells under specific conditions is presented as a percentage of the cell number related to hyperoxia alone. Data are mean±s.d. of four independent experiments with *=P<0.05; **=P<0.01.
At the end of the hyperoxia exposure period, the viable cells were counted by trypan blue dye exclusion.

SMILES	AT2 cell number in room air (21% O2 for 72 hours, Tin Protoporphyrin IX 10^−6M)	effect on T3-caused increase in cell survival in hyperoxia (90% O2 72 hours, T3 10^−6M with Tin Protoporphyrin IX 10^−6M)	number of viable AT2 cells at 48 hours of recovery (90% oxygen for 24 or 48 hours, compound present only during recovery in 21% O2)	effect on cell survival under hyperoxia (90% oxygen for 72 hours, 10^−6M)
C=Cc1c2[n-]c(c1C)/C=c1\[n-]/c(c(C)c1C=C)=C\c1[n-]c(c(CCC(=O)O)c1C)C=c1[n-]/c(c(C)c1CCC(=O)O)=C\2.[Sn+4] [Tin protoporphyrin, Tin Protoporphyrin IX]	no effect on AT2 cell number in room air	blocked the T3-caused increase in cell survival and augmented cell death		
N[C@@H](Cc1ccc(Oc2cc(I)c(O)c(I)c2)c(I)c1)C(=O)O [rT3]			no protective effect	no role in cell survival

Source: patent US20220265775A1, “COMPOSITIONS AND METHODS FOR TREATING PULMONARY EDEMA OR LUNG INFLAMMATION” (priority 2019, published 2022)
